Assay [1] deals with chick chorioallantoic membrane. In words: Chick chorioallantoic membrane (CAM) assay. It is filed as in vivo, chicken. As to conditions: 100 ng per disk, evaluated day 3 after disk placement. As to the method:
On day 4, the eggs were cracked into sterile Petri dishes and incubated at 99° F. in 3% CO2, 65% humidity. For application of drug onto the CAM, Whatman grade 1 filter paper was cut into circles with a 6 mm diameter paper punch and autoclaved. To decrease inflammatory effects of the disk, the discs were soaked in 1 ml of 3.0 mg/ml cortisone acetate in absolute ETOH and air dried for 60 min in a laminar flow hood. On day 8, 5 disks per egg were placed on the outer third of the CAM, 2-3 mm from a vessel. Control PBS 7 μl was added to the discs for the control CAMs, and SFRP2 100 ng/7 μl PBS was added to the disks for the treated CAMs (n=5 control disks and 5 SFRP2-treated disks). The CAMs were evaluated under a stereomicroscope on day 3 after disk placement. Pictures were taken with a Wild M-4 70 Macrosystem, and angiogenesis was quantified using Metamorph Software with an angiogenesis module.
Fertilized chickens eggs (NC State University Chicken Research Faint) were incubated at 100.4° F. in an egg turner (Model#1588 Genesis Hova-Bator, GQF Mfg. Co., Inc.) for 3 days. […] CAMs were evaluated under a stereomicroscope on day 3 after disk placement. Pictures were taken with a Wild M-4 70 Macrosystem and angiogenesis was quantified using Metamorph Software with an angiogenesis module.

Assay [2] relates to HCAEC. Nature of the assay: Endothelial cell proliferation assay (MTT). As to conditions: Jak3, 48 hours. It is filed as cell-based, human. As to the method:
HCAEC were seeded on a 96 well plate at a concentration of 2000 cells/well and allowed to proliferate for 24 hrs in EGM-2 with BulletKit growth supplements. The cells were then quiesced in EGM-2 with 0.1% FBS without BulletKit growth supplements for 18 hours. Media was replaced with fresh EGM-2 with BulletKit growth supplements and the cells were treated in triplicate with: PBS alone; recombinant murine VEGF (60 ng/mL); or Jak3 (at a concentration of 200 nM-200 pM). After 48 h, 10 μl of the colorimetric compound 3-(4,5-dimethylthiazol-2-yl)-2,5-diphenyl tetrazolium bromide (MTT) (5 mg/mL) was added to each well and allowed to incubate for 4 h at 37° C. All but 25 μl of media in each well was removed and 50 μl dimethyl sulfoxide (DMSO) was added. Following a 10 min incubation at 37° C., the A540 was measured using a microplate reader. A540 was converted to number of cells based on a standard curved created by seeding a 96-well plate with known concentrations of cells, as determined by hemocytometry, and measuring their A540 after 4 hrs incubation with MTT.

Assay [3] concerns Human coronary artery endothelial cells (HCAEC). In words: Hypoxia-induced endothelial cell apoptosis assay (caspase 3). It is filed as cell-based. As to conditions: Jak3 20 nM-200 pM, 36 hours hypoxia. As to the method:
Human coronary artery endothelial cells (HCAEC) were used for apoptosis assays because apoptosis could not be induced in the MEC cells. HCAECs were grown in 10-cm dishes (Becton Dickinson, Franklin Lakes, N.J.) with endothelial cell basal medium-2 (EGM-2) BulletKit media (Clonetics, San Diego, Calif.) until 80% confluent. Medium was then replaced with optimal medium according to different assays. The hypoxic condition was created by incubating HCAECs in EGM-2 media without BulletKit growth factors at 37° C. in a hypoxia chamber with an atmosphere of 5% CO2/95% N2. The oxygen level in the chamber was controlled to 1.0%. Apoptosis was determined by measuring the activity of cleaved caspase 3 by using a caspase-specific fluorogenic substrate according to the protocol for the Caspase 3 Assay Kit (Sigma). HCAECs were lysed after treatment with concentrations of SFRP2 (70 pM and 700 pM) for 36 h under hypoxia. […] The enzyme-catalyzed release of 7-amino-4-methyl coumarin (AMC) was measured by a fluorescence microplate reader.
HCAEC were seeded onto a 96 well plate at 2,000 cells/well in EGM-2 with BulletKit growth supplements. […] Apoptosis was determined by measuring the activity of cleaved caspase 3 by using a caspase-specific fluorogenic substrate according to the protocol for the Apo-ONE® Homogeneous Caspase-3/7 Assay (Promega, Madison, Wis.). […]

Assay [4] has as its system HCAEC. Nature of the assay: Scratch wound assay on HCAEC. It is filed as cell-based, human. As to conditions: Jak3 20 nM-200 pM. As to the method:
HCAEC were plated at 10,000 cells/well onto a 96 well plate and allowed to become confluent in EGM-2 with BulletKit growth supplements. The cells were quiesced in EGM-2 with 0.1% FBS without BulletKit growth supplements for 18 hours. The wound was formed using a 1 ml pipette tip. A 20 nM-200 pM dose curve of recombinant human Jak3 (Millipore, Temecula, Calif.) was added to the cells. Each concentration was performed in triplicate and the experiment was repeated three times with similar results. Migration distance was measured at 12 hours and then every 4 hours until wound closure in all wells. Data were recorded as percent of wound closed at each time point.

The subject of assay [5] is HCAEC. In words: Tube formation assay on HCAEC. It is filed as cell-based, human. As to conditions: Jak3 20 nM-200 pM, 8 hours. As to the method:
ECMATRIX (Chemicon, Temecula, Calif.) was thawed, diluted, and solidified in a 96 well plate according to the manufacturer's instructions. HCAEC were seeded onto the matrix at 2,000 cells/well in 150 μl of EGM-2 with 5% FBS without BulletKit growth supplements. A 20 nM-200 pM dose curve of recombinant human Jak3 was added to the cells and the plates were returned to 37° C., 5% CO2 for 8 hours. Each concentration was performed in triplicate and the experiment was repeated three times with similar results. Wells were evaluated under a Nikon Eclipse TS100 microscope at 4× magnification and pictures were taken with a Nikon CoolPix 995 digital camera. Angiogenesis was quantified by counting branch points in the resulting image.
The role of STAT3 activation in Jak3-mediated tube formation was evaluated using a small peptide inhibitor of phosphorylated STAT3 (P-STAT3). ECMATRIX was solidified in wells of a 96 well plate. HCAEC were seeded onto the matrix at 2,000 cells/well in 150 μl of EGM-2 with 5% FBS without additional BulletKit growth supplements. Wells were treated in triplicate with: PBS alone, PBS+100 μM P-STAT3 inhibitor, 20 nM Jak3, or 20 nM Jak3+100 μM P-STAT3 inhibitor. Wells were photographed at 8 hours and tube formation was quantified by counting branch points in the resulting image.

As for “Jak3: recombinant human Jak3 (Millipore)”, the “angiogenesis on the CAM (branch points, segments, tube area, tube length)” value in assay [1] is recorded as “induced angiogenesis on the CAM”. Besides, the cell proliferation result in the assay with HCAEC [2] is “increased cell proliferation”. In addition, the “hypoxia induced endothelial cell apoptosis (caspase 3 activity)” value in assay [3] is on record as “protected against hypoxia induced endothelial cell apoptosis”. For the same substance, in the assay on HCAEC [4], the “endothelial cell migration (percent of wound closed)” value is recorded as “increased endothelial cell migration”. In the assay on HCAEC [5], the “endothelial tube formation (branch points)” value was “induced by Jak3 in a concentration-dependent manner”.

Source of the values: patent US9073982B2, “Targets for regulation of angiogenesis” (The University of North Carolina at Chapel Hill, priority 2008, dated 2015).
